Results published in the supplement of paper PMC10307832.

Tests used:
Test in all cases: relative viability (nuclei count vs DMSO), 5 days (fraction); higher = more cells survive
HARA = system: HARA
How it was run: (§1)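 Relative viability divides the nuclei count in treated wells by that in vehicle wells. Lung cancer cell lines were seeded in 1536-well plates, dosed by pin tool the next day, and fixed and stained after 5 days in one step with final 0.05% Triton X-100, 1% formaldehyde and 1 ug/ml Hoechst. Dosing was a single drug or a fixed anchor-drug dose plus five library-drug doses (not always all listed) in √10 steps, and values are medians of duplicate plates imaged at 4×.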

HCC-15 = system: HCC-15
How it was run: as §1

HCC-366 = system: HCC-366
How it was run: as §1

IA-LM = system: IA-LM
How it was run: as §1

LU99A = system: LU99A
How it was run: as §1

LXF-289 = system: LXF-289
How it was run: as §1

NCI-H1666 = system: NCI-H1666
How it was run: as §1

NCI-H1734 = system: NCI-H1734
How it was run: as §1

NCI-H1793 = system: NCI-H1793
How it was run: as §1

NCI-H1944 = system: NCI-H1944
How it was run: as §1

NCI-H1975 = system: NCI-H1975
How it was run: as §1

NCI-H2228 = system: NCI-H2228
How it was run: as §1

NCI-H2347 = system: NCI-H2347
How it was run: as §1

NCI-H2405 = system: NCI-H2405
How it was run: as §1

NCI-H3122 = system: NCI-H3122
How it was run: as §1

NCI-H358 = system: NCI-H358
How it was run: as §1

NCI-H460 = system: NCI-H460
How it was run: as §1

NCI-H650 = system: NCI-H650
How it was run: as §1

NCI-H661 = system: NCI-H661
How it was run: as §1

NCI-H838 = system: NCI-H838
How it was run: as §1

PC-3 [JPC-3] = system: PC-3 [JPC-3]
How it was run: as §1

SW 1573 = system: SW 1573
How it was run: as §1

Nc1cccc2c1CN(C1CCC(=O)NC1=O)C2=O (centres undefined) [Lenalidomide] + O=C(CCCCCCC(=O)Nc1ccccc1)NO [Vorinostat] (partner 1 µM)
relative viability (HARA; first compound 0.253 µM): 0.61 | relative viability (HARA; first compound 2.53 µM): 0.628 | relative viability (HARA; first compound 8 µM): 0.512 | relative viability (HCC-15; first compound 0.253 µM): 0.826 | relative viability (HCC-15; first compound 0.8 µM): 0.855 | relative viability (HCC-15; first compound 2.53 µM): 0.917 | relative viability (HCC-15; first compound 8 µM): 0.795 | relative viability (HCC-366; first compound 0.253 µM): 0.335 | relative viability (HCC-366; first compound 0.8 µM): 0.102 | relative viability (HCC-366; first compound 2.53 µM): 0.479 | relative viability (HCC-366; first compound 8 µM): 0.265 | relative viability (IA-LM; first compound 0.253 µM): 0.852 | relative viability (IA-LM; first compound 0.8 µM): 0.969 | relative viability (IA-LM; first compound 2.53 µM): 1.22 | relative viability (IA-LM; first compound 8 µM): 0.814 | relative viability (LU99A; first compound 0.253 µM): 0.461 | relative viability (LU99A; first compound 0.8 µM): 0.425 | relative viability (LU99A; first compound 2.53 µM): 0.559 | relative viability (LU99A; first compound 8 µM): 0.263 | relative viability (LXF-289; first compound 0.253 µM): 0.812 | relative viability (LXF-289; first compound 0.8 µM): 0.625 | relative viability (LXF-289; first compound 2.53 µM): 0.798 | relative viability (LXF-289; first compound 8 µM): 0.838 | relative viability (NCI-H1666; first compound 0.253 µM): 1.05 | relative viability (NCI-H1666; first compound 0.8 µM): 1.01 | relative viability (NCI-H1666; first compound 2.53 µM): 1.14 | relative viability (NCI-H1666; first compound 8 µM): 1.04 | relative viability (NCI-H1734; first compound 0.253 µM): 0.855 | relative viability (NCI-H1734; first compound 0.8 µM): 0.759 | relative viability (NCI-H1734; first compound 2.53 µM): 0.871 | relative viability (NCI-H1734; first compound 8 µM): 0.735 | relative viability (NCI-H1793; first compound 0.253 µM): 0.739 | relative viability (NCI-H1793; first compound 2.53 µM): 1.02 | relative viability (NCI-H1793; first compound 8 µM): 0.35 | relative viability (NCI-H1944; first compound 0.253 µM): 0.543 | relative viability (NCI-H1944; first compound 2.53 µM): 0.58 | relative viability (NCI-H1944; first compound 8 µM): 0.44 | relative viability (NCI-H1975; first compound 0.253 µM): 0.72 | relative viability (NCI-H1975; first compound 0.8 µM): 0.768 | relative viability (NCI-H1975; first compound 2.53 µM): 0.736 | relative viability (NCI-H1975; first compound 8 µM): 0.744 | relative viability (NCI-H2228; first compound 0.253 µM): 0.451 | relative viability (NCI-H2228; first compound 0.8 µM): 0.505 | relative viability (NCI-H2228; first compound 2.53 µM): 1.09 | relative viability (NCI-H2228; first compound 8 µM): 1.12 | relative viability (NCI-H2347; first compound 0.253 µM): 0.701 | relative viability (NCI-H2347; first compound 0.8 µM): 0.611 | relative viability (NCI-H2347; first compound 2.53 µM): 0.722 | relative viability (NCI-H2347; first compound 8 µM): 0.448 | relative viability (NCI-H2405; first compound 0.253 µM): 1.12 | relative viability (NCI-H2405; first compound 0.8 µM): 0.934 | relative viability (NCI-H2405; first compound 2.53 µM): 1.09 | relative viability (NCI-H2405; first compound 8 µM): 0.943 | relative viability (NCI-H3122; first compound 0.253 µM): 0.723 | relative viability (NCI-H3122; first compound 0.8 µM): 1.05 | relative viability (NCI-H3122; first compound 2.53 µM): 0.95 | relative viability (NCI-H3122; first compound 8 µM): 0.966 | relative viability (NCI-H358; first compound 0.8 µM): 0.748 | relative viability (NCI-H358; first compound 2.53 µM): 0.745 | relative viability (NCI-H358; first compound 8 µM): 0.72 | relative viability (NCI-H460; first compound 0.253 µM): 0.815 | relative viability (NCI-H460; first compound 0.8 µM): 0.715 | relative viability (NCI-H460; first compound 2.53 µM): 1.03 | relative viability (NCI-H460; first compound 8 µM): 0.783 | relative viability (NCI-H650; first compound 0.253 µM): 0.492 | relative viability (NCI-H650; first compound 0.8 µM): 0.446 | relative viability (NCI-H650; first compound 2.53 µM): 0.59 | relative viability (NCI-H650; first compound 8 µM): 0.322 | relative viability (NCI-H661; first compound 0.253 µM): 0.737 | relative viability (NCI-H661; first compound 0.8 µM): 0.828 | relative viability (NCI-H661; first compound 2.53 µM): 0.893 | relative viability (NCI-H661; first compound 8 µM): 0.848 | relative viability (NCI-H838; first compound 0.253 µM): 0.732 | relative viability (NCI-H838; first compound 0.8 µM): 0.692 | relative viability (NCI-H838; first compound 2.53 µM): 0.712 | relative viability (NCI-H838; first compound 8 µM): 0.697 | relative viability (PC-3 [JPC-3]; first compound 0.253 µM): 1.02 | relative viability (PC-3 [JPC-3]; first compound 0.8 µM): 0.721 | relative viability (PC-3 [JPC-3]; first compound 2.53 µM): 0.903 | relative viability (PC-3 [JPC-3]; first compound 8 µM): 0.72 | relative viability (SW 1573; first compound 0.253 µM): 0.456 | relative viability (SW 1573; first compound 0.8 µM): 0.822 | relative viability (SW 1573; first compound 2.53 µM): 0.974 | relative viability (SW 1573; first compound 8 µM): 0.759
